Structures are written as SMILES.

One test concerns the target T1, human type 1 glycine transporter (GlyT1) (Homo sapiens, UniProt P48067).
T1 construct: T98G cells (glioma cells) expressing human type 1 glycine transporter (GlyT1) were used; endogenous in cells; host or cells: T98G cells (human glioma cells)
T1 sequence (P48067 1-706): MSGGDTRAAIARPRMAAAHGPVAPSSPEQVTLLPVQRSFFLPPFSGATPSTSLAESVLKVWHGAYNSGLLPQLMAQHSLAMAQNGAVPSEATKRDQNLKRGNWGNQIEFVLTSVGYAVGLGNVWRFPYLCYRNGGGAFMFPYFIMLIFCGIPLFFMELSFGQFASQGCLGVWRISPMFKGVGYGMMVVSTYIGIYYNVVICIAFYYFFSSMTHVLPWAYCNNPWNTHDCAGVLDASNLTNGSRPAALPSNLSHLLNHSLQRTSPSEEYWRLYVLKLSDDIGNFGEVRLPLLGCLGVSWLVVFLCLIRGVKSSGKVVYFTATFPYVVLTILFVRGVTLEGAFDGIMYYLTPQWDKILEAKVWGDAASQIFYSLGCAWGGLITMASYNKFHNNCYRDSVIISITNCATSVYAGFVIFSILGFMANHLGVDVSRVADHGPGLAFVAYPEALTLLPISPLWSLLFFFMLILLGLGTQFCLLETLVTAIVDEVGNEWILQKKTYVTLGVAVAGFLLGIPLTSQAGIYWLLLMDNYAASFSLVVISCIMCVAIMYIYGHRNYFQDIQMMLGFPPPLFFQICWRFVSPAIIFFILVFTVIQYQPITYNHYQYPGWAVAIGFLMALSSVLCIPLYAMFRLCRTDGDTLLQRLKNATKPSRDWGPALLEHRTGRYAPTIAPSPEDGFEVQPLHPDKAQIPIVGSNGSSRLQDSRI
Nature of the test: Glycine uptake inhibition experiment ([3H] glycine uptake in T98G cells expressing GlyT1). It is filed as cell-based.
Conditions: not given
The gist of the method: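 T98G glioma cells expressing human GlyT1 were pretreated 10 min with compound in HEPES buffer pH 7.4 (0.2% BSA), then incubated with compound plus 250 nM final [3H]glycine for 15 min at room temperature. Intracellular radioactivity was counted after NaOH lysis; 10 μM ALX5407 defined non-specific uptake. IC50 came from 10^−9–10^−5 M curves.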
`COc1cc(CN2C(=O)C(F)(F)c3c([C@H](C)O)cccc32)ncc1Cl` [Compound 232, 1-[(5-chloro-4-methoxypyridin-2-yl)methyl)-3,3-difluoro-4-[(1S)-1-hydroxyethyl]-1,3-dihydro-2H-indol-2-one]: 32 nM corresponded to half-maximal inhibition (IC50).

Take `CC(O)c1c(F)ccc2c1C(F)(F)C(=O)N2Cc1cncc(Cl)c1` (single isomer, unassigned) [Compound 181, 1-[(5-chloropyridin-3-yl)methyl]-3,3,5-trifluoro-4-(1-hydroxyethyl)-1,3-dihydro-2H-indol-2-one]: 310 nM corresponded to half-maximal inhibition (IC50). Compared with the last compound, the IC50 is about 9.7-fold higher.

For `COc1cc(Cl)ncc1CN1C(=O)C(F)(F)c2c([C@H](C)O)cccc21` [Compound 231, 1-[(6-chloro-4-methoxypyridin-3-yl)methyl]-3,3-difluoro-4-[(1S)-1-hydroxyethyl]-1,3-dihydro-2H-indol-2-one], the half-maximal inhibitory concentration (IC50) is 140 nM.

Consider `O=C1N(Cc2ccc(F)cn2)c2cccc(C(O)C(F)F)c2C1(F)F` (single isomer, unassigned) [Compound 168, 4-(2,2-difluoro-1-hydroxyethyl)-3,3-difluoro-1-[(5-fluoropyridin-2-yl)methyl]-1,3-dihydro-2H-indol-2-one], for which the IC50 was determined as 280 nM. Compared with the last compound, the IC50 is about 2-fold higher.

In turn, `N#Cc1cncc(CN2C(=O)C(F)(F)c3c(C(O)C(F)F)cccc32)c1` (single isomer, unassigned) [Compound 164, 5-{[4-(2,2-difluoro-1-hydroxyethyl)-3,3-difluoro-2-oxo-2,3-dihydro-1H-indol-1-yl]methyl}pyridine-3-carbonitrile] came in with an IC50 of 460 nM.

In the case of `COc1ccncc1CN1C(=O)C(F)(F)c2c([C@H](C)O)cccc21` [Compound 209, 3,3-difluoro-4-[(1S)-1-hydroxyethyl]-1-[(4-methoxypyridin-3-yl)methyl]-1,3-dihydro-2H-indol-2-one], half-maximal inhibition (IC50) was put at 2800 nM.

Compound `COc1nc(C(F)(F)F)ccc1CN1C(=O)C(F)(F)c2c([C@H](C)O)cccc21` [Compound 243, 3,3-difluoro-4-[(1S)-1-hydroxyethyl]-1-({2-methoxy-6-(trifluoromethyl)pyridin-3-yl]methyl}-1,3-dihydro-2H-indol-2-one] came in with an IC50 of 57 nM. Compared with the last compound, the IC50 is about 49-fold lower.

On to `C[C@H](O)c1cccc2c1C(F)(F)C(=O)N2Cc1ccc(Cl)nc1C#N` [Compound 248, 6-chloro-3-({3,3-difluoro-4-[(1S)-1-hydroxyethyl]-2-oxo-2,3-dihydro-1H-indol-1-yl}methyl)pyridine-2-carbonitrile], for which the IC50 was determined as 1200 nM.

Turning to `C[C@H](O)c1cccc2c1C(F)(F)C(=O)N2Cc1cnc(F)c(Br)c1` [Compound 228, 1-[(5-bromo-6-fluoropyridin-3-yl)methyl]-3,3-difluoro-4-[(1S)-1-hydroxyethyl]-1,3-dihydro-2H-indol-2-one], the IC50 was 2.1 nM.

Still in this test, the particulars now being: glycine uptake inhibition.
In turn, `COc1cncc(CN2C(=O)C(F)(F)c3c([C@H](C)O)cccc32)c1` [Compound 71, 3,3-difluoro-4-[(1S)-1-hydroxyethyl]-1-[(5-methoxypyridin-3-yl)methyl]-1,3-dihydro-2H-indol-2-one] registered an IC50 of 160 nM.

As for `C[C@H](O)c1cccc2c1C(F)(F)C(=O)N2Cc1ccc(C(F)(F)F)cn1` [Compound 112, 3,3-difluoro-4-[(1S)-1-hydroxyethyl]-1-{[5-(trifluoromethyl)pyridin-2-yl]methyl}-1,3-dihydro-2H-indol-2-one], the IC50 came out at 29 nM.

`COc1ccnc(CN2C(=O)C(F)(F)c3c([C@H](C)O)cccc32)c1` [Compound 66, 3,3-difluoro-4-[(1S)-1-hydroxyethyl]-1-[(4-methoxypyridin-2-yl)methyl]-1,3-dihydro-2H-indol-2-one] returned an IC50 of 130 nM.

`CC(O)c1cccc2c1C(F)(F)C(=O)N2Cc1nc2ccccc2c(=O)n1C` (stereo not drawn) [Compound 30, 2-{[3,3-difluoro-4-(1-hydroxyethyl)-2-oxo-2,3-dihydro-1H-indol-1-yl]methyl)-3-methylquinazolin-4(3H)-one] showed an IC50 of 54 nM. Compared with the last compound, the IC50 is about 2.4-fold lower.

`O=C1N(Cc2cccc(Cl)n2)c2cccc(C(O)CF)c2C1(F)F` (stereo not drawn) [Compound 11, 1-[(6-chloropyridin-2-yl)methyl]-3,3-difluoro-4-(2-fluoro-1-hydroxyethyl)-1,3-dihydro-2H-indol-2-one] returned an IC50 of 17 nM. This IC50 is about 3.2-fold lower than that of the compound before.

In the case of `C[C@H](O)c1cccc2c1C(F)(F)C(=O)N2Cc1cc(Cl)ccn1` [Compound 65, 1-[(4-chloropyridin-2-yl)methyl]-3,3-difluoro-4-[(1S)-1-hydroxyethyl]-1,3-dihydro-2H-indol-2-one], the IC50 amounted to 18 nM. This IC50 and that of the compound before are within 1.5-fold of each other.

`O=C1N(Cc2cccc(Cl)n2)c2cccc(C3(O)CCC3)c2C1(F)F` [Compound 24, 1-[(6-chloropyridin-2-yl)methyl]-3,3-difluoro-4-(1-hydroxycyclobutyl)-1,3-dihydro-2H-indol-2-one] gave an IC50 of 5900 nM.

For `CC(O)c1cccc2c1C(F)(F)C(=O)N2Cc1ccnc(C#N)c1` (stereo not drawn) [Compound 28], 98 nM corresponded to half-maximal inhibition (IC50).

As to `O=C1N(Cc2cccc(Cl)n2)c2cccc(C3(O)COC3)c2C1(F)F` [Compound 25, 1-[(6-chloropyridin-2-yl)methyl]-3,3-difluoro-4-(3-hydroxyoxetan-3-yl)-1,3-dihydro-2H-indol-2-one], it took 7600 nM to reach half-maximal inhibition (IC50). Compared with the last compound, the IC50 is about 78-fold higher.

For `C[C@H](O)c1cccc2c1C(F)(F)C(=O)N2Cc1nc2cc(F)ccc2o1` [Compound 92, 3,3-difluoro-1-[(5-fluoro-1,3-benzoxazol-2-yl)methyl]-4-[(1S)-1-hydroxyethyl]-1,3-dihydro-2H-indol-2-one], it took 69 nM to reach half-maximal inhibition (IC50).

The compound `O=C1N(Cc2ccnc(F)c2)c2cccc([C@@H](O)C(F)(F)F)c2C1(F)F` [Compound 149, 3,3-difluoro-1-[(2-fluoropyridin-4-yl)methyl]-4-[(1R)-2,2,2-trifluoro-1-hydroxyethyl]-1,3-dihydro-2H-indol-2-one] registered an IC50 of 200 nM.

In turn, `O=C1N(Cc2cncc(Cl)c2)c2ccc(F)c(C(O)C(F)(F)F)c2C1(F)F` (single isomer, unassigned) [Compound 50, 1-[(5-chloropyridin-3-yl)methyl]-3,3,5-trifluoro-4-(2,2,2-trifluoro-1-hydroxyethyl)-1,3-dihydro-2H-indol-2-one] returned an IC50 of 170 nM.

`O=C1N(Cc2cncc(Cl)c2)c2cccc(C(O)C(F)F)c2C1(F)F` (single isomer, unassigned) [Compound 120, 1-[(5-chloropyridin-3-yl)methyl]-4-(2,2-difluoro-1-hydroxyethyl)-3,3-difluoro-1,3-dihydro-2H-indol-2-one]: the IC50 was found to be 57 nM.

As to `C[C@H](O)c1cccc2c1C(F)(F)C(=O)N2Cc1noc2ccccc12` [Compound 119, 1-(1,2-benzoxazol-3-ylmethyl)-3,3-difluoro-4-[(1S)-1-hydroxyethyl]-1,3-dihydro-2H-indol-2-one], the half-inhibitory concentration (IC50) worked out at 77 nM.

With `O=C1N(Cc2cccc(Cl)n2)c2cccc(CO)c2C1(F)F` [Compound 16, 1-[(6-chloropyridin-2-yl)methyl]-3,3-difluoro-4-(hydroxymethyl)-1,3-dihydro-2H-indol-2-one], the IC50 was 140 nM.

For `C[C@H](O)c1cccc2c1C(F)(F)C(=O)N2Cc1cncc(Cl)n1` [Compound 72, 1-[(6-chloropyrazin-2-yl)methyl]-3,3-difluoro-4-[(1S)-1-hydroxyethyl]-1,3-dihydro-2H-indol-2-one], half-maximal inhibition (IC50) was put at 12 nM.

`Cc1nc(CN2C(=O)C(F)(F)c3c([C@H](C)O)cccc32)oc1C` [Compound 91, 1-[(4,5-dimethyl-1,3-oxazol-2-yl)methyl]-3,3-difluoro-4-[(1S)-1-hydroxyethyl]-1,3-dihydro-2H-indol-2-one] showed an IC50 of 130 nM.

Consider `O=C1N(Cc2ccnc(Cl)c2)c2cccc(C(O)C(F)F)c2C1(F)F` (single isomer, unassigned) [Compound 35], for which the IC50 was determined as 280 nM.

With `N#Cc1cccc(CN2C(=O)C(F)(F)c3c(C(O)C(F)(F)F)cccc32)n1` (stereo not drawn) [Compound 13, 6-{[3,3-difluoro-2-oxo-4-(2,2,2-trifluoro-1-hydroxyethyl)-2,3-dihydro-1H-indol-1-yl]methyl}pyridine-2-carbonitrile], 96 nM corresponded to half-maximal inhibition (IC50).

The test is the same for the next values; noted with them: table section whose head prints (μm).
In the case of `O=C1N(Cc2cc(C(F)(F)F)c(Cl)cn2)c2cccc(C(O)C(F)F)c2C1(F)F` (single isomer, unassigned) [Compound 268, 1-{[5-chloro-4-(trifluoromethyl)pyridin-2-yl]methyl)-4-(2,2-difluoro-1-hydroxyethyl)-3,3-difluoro-1,3-dihydro-2H-indol-2-one], the IC50 is 16 nM.

`O=C1N(Cc2cnc(Cl)cc2Cl)c2cccc(C(O)C(F)F)c2C1(F)F` (single isomer, unassigned) [Compound 269, 1-[(4,6-dichloropyridin-3-yl)methyl]-4-(2,2-difluoro-1-hydroxyethyl)-3,3-difluoro-1,3-dihydro-2H-indol-2-one] registered an IC50 of 330 nM.

The IC50 is the concentration that inhibits the measured activity by half. High values mean weaker potency, low ones greater potency.
